From PubChem BioAssay (NCI)
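All cell lines were grown in 96-well plates and treated with compound for 48 hours. GI50 = concentration required for 50% inhibition of growth. Definition used: TGI = concentration required for complete inhibition of growth.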

Columns and labels:
Assay in all cases: NCI-60 cell line screen, 48 h; in the data active = GI50 below about 0.43 µM; inactive = the rest
[1] = system: SNB-19 CNS
[2] = system: HCC-2998 colon
[3] = system: SF-539 CNS
[4] = system: UACC-62 melanoma
[5] = system: UACC-257 melanoma
[6] = system: MDA-MB-231 breast
[7] = system: OVCAR-4 ovarian
[8] = system: SF-295 CNS
[9] = system: 786-0 renal
[10] = system: SK-MEL-5 melanoma
[11] = system: PC-3 prostate
[12] = system: A498 renal
[13] = system: NCI-H460 lung
[14] = system: HL-60(TB) leukemia
[15] = system: HCT-15 colon
[16] = system: SR leukemia
[17] = system: SK-MEL-28 melanoma
[18] = system: OVCAR-8 ovarian
[19] = system: T-47D breast
[20] = system: COLO 205 colon
[21] = system: IGROV1 ovarian
[22] = system: OVCAR-3 ovarian
[23] = system: RXF 393 renal
[24] = system: NCI/ADR-RES ovarian
[25] = system: UO-31 renal
[26] = system: HOP-62 NSCLC
[27] = system: A549 NSCLC
[28] = system: M14 melanoma
[29] = system: CAKI-1 renal
[30] = system: HCT-116 colon
[31] = system: RPMI-8226 leukemia
[32] = system: MDA-N
[33] = system: MALME-3M melanoma
[34] = system: U251 CNS
[35] = system: K-562 leukemia
[36] = system: DU-145 prostate
[37] = system: MCF7 breast
[38] = system: SW-620 colon
[39] = system: SF-268 CNS
[40] = system: SNB-75 CNS
[41] = system: MOLT-4 leukemia
[42] = system: CCRF-CEM leukemia
[43] = system: OVCAR-5 ovarian
[44] = system: EKVX NSCLC
[45] = system: HOP-92 NSCLC
[46] = system: ACHN renal
[47] = system: KM12 colon
[48] = system: LOX IMVI melanoma
[49] = system: SK-OV-3 ovarian
[50] = system: NCI-H23 lung
[51] = system: SN12C renal
[52] = system: NCI-H522 lung
[53] = system: NCI-H226 lung
[54] = system: SK-MEL-2 melanoma
[55] = system: HT29 colon
[56] = system: TK-10 renal
[57] = system: BT-549 breast
[58] = system: MDA-MB-435
[59] = system: HS 578T breast

CC(=O)c1ccc(N2CCN(c3c(O)c4c(c(O)c3Cl)C(=O)C=CC4=O)CC2)cc1
41 µM: TGI [13]
23.5 µM: TGI [33]
5.5 µM: TGI [6]
11.9 µM: TGI [30] | TGI [34]
33.9 µM: TGI [8]
26.6 µM: TGI [40]
8.91 µM: TGI [20]
11.8 µM: TGI [29]
10.8 µM: TGI [7] | TGI [32]
24.1 µM: TGI [5]
35.7 µM: TGI [1]
8.12 µM: TGI [39]
9.44 µM: TGI [23]
9.43 µM: TGI [31]
0.871 µM: TGI [14]
16.8 µM: TGI [17]
10.4 µM: TGI [19]
15.5 µM: TGI [21]
33.7 µM: TGI [12]
> 100 µM: TGI [15]
7.1 µM: TGI [35]
34.8 µM: TGI [27]
4.57 µM: TGI [41]
6.76 µM: TGI [28]
22.9 µM: TGI [25]
23 µM: TGI [18]
19.1 µM: TGI [11]
18.2 µM: TGI [22]
5.13 µM: TGI [45]
12.7 µM: TGI [38]
2.07 µM: TGI [42]
21 µM: TGI [26]
88.5 µM: TGI [24]
30.2 µM: TGI [3]
8.33 µM: TGI [16]
27.2 µM: TGI [9]
31.2 µM: TGI [36]
33 µM: TGI [43]
37.4 µM: TGI [2]
46.7 µM: TGI [44]
2.8 µM: TGI [37]
20.3 µM: TGI [10]
7.37 µM: TGI [4]

Fc1ccc(-c2ncn(C3CCNCC3)c2-c2ccnc(Oc3ccccc3)n2)cc1
14.1 µM: TGI [10]
inactive: GI50 [1] > 25 µM | GI50 [2] 12.8 µM | GI50 [3] > 25 µM | GI50 [4] > 25 µM | GI50 [5] 12.5 µM | GI50 [46] 7.22 µM | GI50 [6] 13.4 µM | GI50 [7] > 25 µM | GI50 [8] 18.2 µM | GI50 [47] > 25 µM | GI50 [9] > 22.5 µM | GI50 [10] 4.87 µM | GI50 [11] > 25 µM | GI50 [12] > 16.1 µM | GI50 [13] 16.1 µM | GI50 [14] > 16.6 µM | GI50 [15] > 22.8 µM | GI50 [16] 9.17 µM | GI50 [17] 16.9 µM | GI50 [18] > 25 µM | GI50 [19] 17.3 µM | GI50 [48] > 15.8 µM | GI50 [20] 7.32 µM | GI50 [49] 20.1 µM | GI50 [21] 13.5 µM | GI50 [22] > 25 µM | GI50 [23] 11.7 µM | GI50 [24] > 25 µM | GI50 [25] 7.72 µM | GI50 [50] > 25 µM | GI50 [26] > 25 µM | GI50 [51] 18.5 µM | GI50 [27] 20.1 µM | GI50 [28] 9.86 µM | GI50 [29] 18.4 µM | GI50 [30] 14.8 µM | GI50 [52] > 25 µM | GI50 [31] > 23.9 µM | GI50 [53] > 25 µM | GI50 [54] > 25 µM | GI50 [33] 18.4 µM | GI50 [34] 15.2 µM | GI50 [35] 10.8 µM | GI50 [36] > 25 µM | GI50 [55] 8.3 µM | GI50 [37] 9.3 µM | GI50 [56] 21.2 µM | GI50 [38] > 25 µM | GI50 [39] > 25 µM | GI50 [40] > 19.3 µM | GI50 [41] 23.4 µM | GI50 [42] > 23.3 µM | GI50 [43] 22.3 µM | GI50 [57] 23 µM | GI50 [44] > 25 µM | GI50 [58] 17.8 µM | GI50 [45] 5.75 µM | GI50 [59] > 13.1 µM
> 20.1 µM: TGI [16]
> 25 µM: TGI [1] | TGI [2] | TGI [3] | TGI [4] | TGI [5] | TGI [46] | TGI [6] | TGI [7] | TGI [8] | TGI [47] | TGI [9] | TGI [11] | TGI [12] | TGI [13] | TGI [14] | TGI [15] | TGI [17] | TGI [18] | TGI [19] | TGI [48] | TGI [49] | TGI [21] | TGI [22] | TGI [23] | TGI [24] | TGI [25] | TGI [50] | TGI [26] | TGI [51] | TGI [27] | TGI [28] | TGI [29] | TGI [30] | TGI [52] | TGI [31] | TGI [53] | TGI [54] | TGI [33] | TGI [34] | TGI [35] | TGI [36] | TGI [55] | TGI [37] | TGI [56] | TGI [38] | TGI [39] | TGI [40] | TGI [41] | TGI [42] | TGI [43] | TGI [57] | TGI [44] | TGI [58] | TGI [45] | TGI [59]
18.6 µM: TGI [20]

COc1c(C(=O)/C(=N/Nc2ccccc2)C(C)=O)c(O)c(OC)c2occc12
99.6 µM: TGI [45]
31.7 µM: TGI [10]
86.3 µM: TGI [25]
92 µM: TGI [33]
81.8 µM: TGI [40]
> 100 µM: TGI [1] | TGI [2] | TGI [3] | TGI [4] | TGI [5] | TGI [46] | TGI [6] | TGI [7] | TGI [8] | TGI [47] | TGI [9] | TGI [11] | TGI [13] | TGI [14] | TGI [15] | TGI [16] | TGI [17] | TGI [18] | TGI [19] | TGI [48] | TGI [20] | TGI [49] | TGI [21] | TGI [22] | TGI [23] | TGI [24] | TGI [50] | TGI [26] | TGI [51] | TGI [27] | TGI [28] | TGI [29] | TGI [30] | TGI [52] | TGI [31] | TGI [53] | TGI [54] | TGI [32] | TGI [34] | TGI [35] | TGI [36] | TGI [55] | TGI [37] | TGI [56] | TGI [38] | TGI [39] | TGI [41] | TGI [42] | TGI [43] | TGI [44] | TGI [58] | TGI [59]
